Laboratory results published in paper PMC3375360 (Journal of Medicinal Chemistry, 2012).

Legend:
Type in all cases: cell-based
[1] = system: bloodstream form T. b. brucei parasites, engineered to overexpress type I nitroreductase; test: microbe, parasite or virus in culture; settings: Trypanosoma brucei, read-out: TbNTR −tet (IC50)
[2] = system: T. cruzi, strain Tulahuen C4 amastigotes; test: In vitro growth inhibition of T. cruzi amastigotes in infected L6 myoblasts
[3] = system: T.b. rhodesiense, strain STIB 900 trypomastigotes; test: In vitro growth inhibition of bloodstream form T. b. rhodesiense trypomastigotes; settings: for activity designation against T. b. rhodesiense: TDR criteria
[4] = system: L. donovani axenic, strain MHOM-ET-67/L82 amastigotes; test: In vitro growth inhibition of axenically cultured L. donovani amastigotes; settings: for activity designation against L. donovani: TDR criteria
[5] = system: L6 cells (rat skeletal myoblasts); test: Cytotoxicity in L6 cells; settings: read-out: L6 IC50 (cytotoxicity)

CC1CS(=O)(=O)CCN1/N=C/c1ccc([N+](=O)[O-])o1 (stereo not drawn) [Nfx, 4-(5-nitrofurfurylidenamino)-3-methylthio-morpholine-1,1-dioxide]
IC50 [1]: 1710 ± 60 nM

O=[N+]([O-])c1ncn(CCNS(=O)(=O)Cc2ccccc2)n1 [Compound 30, N-[2-(3-Nitro-1H-1,2,4-triazol-1-yl)ethyl]-1-phenylmethanesulfonamide]
activity designation against T. cruzi ([2]; TDR criteria): moderately active (IC50 = 4.0–60 μM)

O=C(NCCCCn1cnc([N+](=O)[O-])n1)c1ccc(OC(F)(F)F)cc1 [Compound 6, N-[4-(3-Nitro-1H-1,2,4-triazol-1-yl)butyl]-4-(trifluoromethoxy)benzamide]
SI (T. cruzi) ([2]; ratio IC50 in L6 cells/IC50 in T. cruzi): >2381

O=C(NCCCn1cnc([N+](=O)[O-])n1)c1cnc2ccccc2n1 [Compound 12, N-[3-(3-Nitro-1H-1,2,4-triazol-1-yl)propyl]quinoxaline-2-carboxamide]
activity designation against T. b. rhodesiense [3]: complete inactivity

O=C(NCCCn1cnc([N+](=O)[O-])n1)c1ccc(-c2ccccc2)cc1 [Compound 13, N-[3-(3-Nitro-1H-1,2,4-triazol-1-yl)propyl]-4-phenylbenzamide]
activity designation against T. b. rhodesiense [3]: moderately active (IC50 = 0.5–6.0 μM)

Nc1nc(N)nc(Nc2ccc([As]3SCC(CO)S3)cc2)n1 (stereo not drawn) [Melars., Melarsoprol, reference compound]
IC50 ([3]; Trypanosoma brucei, RHODESIENSE|STIB900, read-out: T.b.rhod. IC50): 12 nM

O=C(NCCCn1cnc([N+](=O)[O-])n1)c1ccc(C(F)(F)F)nc1 [Compound 9, N-[3-(3-Nitro-1H-1,2,4-triazol-1-yl)propyl]-6-(trifluoromethyl)pyridine-3-carboxamide]
activity designation against T. b. rhodesiense [3]: moderate activity

O=[N+]([O-])c1ncn(CCNS(=O)(=O)c2cc(C(F)(F)F)cc(C(F)(F)F)c2)n1 [Compound 26, N-[2-(3-nitro-1H-1,2,4-triazol-1-yl)ethyl]-3,5-bis(trifluoromethyl)benzene-1-sulfonamide]
activity designation against T. b. rhodesiense [3]: inactivity

O=[N+]([O-])c1nccn1CCCNS(=O)(=O)c1ccc(C(F)(F)F)cc1 [Compound 21, N-[3-(2-Nitro-1H-imidazol-1-yl)propyl]-4-(trifluoromethyl)benzene-1-sulfonamide]
activity designation against T. b. rhodesiense [3]: inactive

O=C(Cn1cnc([N+](=O)[O-])n1)Nc1nc2cc(Cl)ccc2o1 [Compound 19, N-(5-chloro-1,3-benzoxazol-2-yl)-2-(3-nitro-1H-1,2,4-triazol-1-yl)acetamide]
activity designation against T. b. rhodesiense [3]: inactive

O=C(NCCCn1ccnc1[N+](=O)[O-])c1ccc(C(F)(F)F)cc1 [Compound 1]
activity designation against T. b. rhodesiense [3]: inactive

Cc1ccc(S(=O)(=O)NCCCn2cnc([N+](=O)[O-])n2)cc1 [Compound 28, 4-Methyl-N-[3-(3-nitro-1H-1,2,4-triazol-1-yl)propyl]benzene-1-sulfonamide]
SI (L.don. ax.) ([4]; ratio IC50 in L6 cells/IC50 in L. donovani): >8.1

O=C(NCCCn1ccnc1[N+](=O)[O-])c1ccc(OC(F)(F)F)cc1 [Compound 2, N-[3-(2-Nitro-1H-imidazol-1-yl)propyl]-4-(trifluoromethoxy)benzamide]
activity designation against T. b. rhodesiense [3]: inactive

O=[N+]([O-])c1ncn(CCCNS(=O)(=O)c2cc(C(F)(F)F)cc(C(F)(F)F)c2)n1 [Compound 27, N-[3-(3-nitro-1H-1,2,4-triazol-1-yl)propyl]-3,5-bis(trifluoromethyl)benzene-1-sulfonamide]
activity designation against T. b. rhodesiense [3]: inactivity

O=C(Cn1cnc([N+](=O)[O-])n1)Nc1nc2ccc(Cl)cc2s1 [Compound 18, N-(6-chloro-1,3-benzothiazol-2-yl)-2-(3-nitro-1H-1,2,4-triazol-1-yl)acetamide]
activity designation against T. b. rhodesiense [3]: inactive
activity designation against L. donovani [4]: moderately active (IC50 = 1.0–6.0 μM)

O=C(NCCCn1cnc([N+](=O)[O-])n1)c1cc(C(F)(F)F)cc(C(F)(F)F)c1 [Compound 8, N-[3-(3-Nitro-1H-1,2,4-triazol-1-yl)propyl]-3,5-bis(trifluoromethyl)benzamide]
activity designation against T. b. rhodesiense [3]: inactivity

Cc1ccc2nc(NC(=O)Cn3cnc([N+](=O)[O-])n3)sc2c1 [Compound 17, N-(6-methyl-1,3-benzothiazol-2-yl)-2-(3-nitro-1H-1,2,4-triazol-1-yl)acetamide]
activity designation against T. b. rhodesiense [3]: inactive
activity designation against L. donovani [4]: moderately active (IC50 = 1.0–6.0 μM)

Podophylotoxin [Podoph.]
IC50 [5]: 22 nM

O=[N+]([O-])c1ncn(CCCNS(=O)(=O)c2cc(C(F)(F)F)ccc2C(F)(F)F)n1 [Compound 25, N-[3-(3-Nitro-1H-1,2,4-triazol-1-yl)propyl]-2,5-bis(trifluoromethyl)benzene-1-sulfonamide]
activity designation against T. b. rhodesiense [3]: inactivity
